Laboratory results reported in the supplement of paper PMC10307832.

Legend:
Assay in all cases: relative viability (nuclei count vs DMSO), 5 days (fraction); higher = more cells survive
[1] = compound: O=C(CCCCCCNC(=O)c1cnc(N(c2ccccc2)c2ccccc2)nc1)NO [Ricolinostat] + Nc1nc2[nH]cc(CCc3ccc(C(=O)N[C@@H](CCC(=O)O)C(=O)O)cc3)c2c(=O)[nH]1 [Pemetrexed] (partner 0.2 µM)
Summary of the method: (§1)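 The day after seeding in 1536-well plates, lung cancer cell lines were treated by pin tool with a single drug, or with a fixed anchor-drug dose together with five library-drug doses (not always all listed) in √10 steps. After 5 days, a combined fix-and-stain solution (final 0.05% Triton X-100, 1% formaldehyde, 1 ug/ml Hoechst) was added. Nuclei counted on 4× images gave relative viability as treated counts over vehicle counts, reported as the median of duplicate plates.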

TGX 221 + Palbociclib = compound: CC1=CN2C(=O)C=C(N=C2C(=C1)C(C)NC3=CC=CC=C3)N4CCOCC4 [TGX 221] + CC(=O)c1c(C)c2cnc(Nc3ccc(N4CCNCC4)cn3)nc2n(C2CCCC2)c1=O [Palbociclib] (partner 0.5 µM)
Summary of the method: as §1

[2] = compound: C1=CC=C(C(=C1)C2=CC=C(C=C2)C3=CSC4=C3C(=C(C(=O)N4)C#N)O)O + C[C@]1(O)C[C@@H](c2nc(-c3ccc4ccc(-c5ccccc5)nc4c3)c3c(N)nccn32)C1 [Linsitinib] (partner 1 µM)
Summary of the method: as §1

[3] = compound: C1=CC=C(C(=C1)C2=CC=C(C=C2)C3=CSC4=C3C(=C(C(=O)N4)C#N)O)O + CC(C)C[C@H](NC(=O)[C@H](Cc1ccccc1)NC(=O)c1cnccn1)B(O)O [Bortezomib] (partner 0.002 µM)
Summary of the method: as §1

Cell Line | relative viability ([1]; first compound 0.08 µM) | relative viability ([1]; first compound 0.253 µM) | relative viability ([1]; first compound 0.8 µM) | relative viability ([1]; first compound 2.53 µM) | relative viability (TGX 221 + Palbociclib; first compound 0.08 µM) | relative viability (TGX 221 + Palbociclib; first compound 0.253 µM) | relative viability (TGX 221 + Palbociclib; first compound 0.8 µM) | relative viability (TGX 221 + Palbociclib; first compound 2.53 µM) | relative viability (TGX 221 + Palbociclib; first compound 8 µM) | relative viability ([2]; first compound 0.08 µM) | relative viability ([2]; first compound 0.253 µM) | relative viability ([2]; first compound 0.8 µM) | relative viability ([2]; first compound 2.53 µM) | relative viability ([2]; first compound 8 µM) | relative viability ([3]; first compound 0.08 µM) | relative viability ([3]; first compound 0.253 µM) | relative viability ([3]; first compound 0.8 µM) | relative viability ([3]; first compound 2.53 µM) | relative viability ([3]; first compound 8 µM)
RERF-LC-KJ | 0.492 | 0.427 | 0.447 | 0.374 | 1.06 | 0.979 | 1.09 | 0.905 | 0.914 | 0.93 | 1.03 | 0.877 | 0.911 | 0.831 | 0.995 | 1.1 | 1.22 | 1.1 | 1.05
NCI-H520 | – | 0.762 | 0.744 | 0.628 | 0.156 | 0.139 | 0.146 | 0.166 | 0.132 | 0.712 | 1.08 | 1.26 | 1.21 | 0.829 | 0.496 | 0.494 | 0.903 | 0.506 | 0.492
NCI-H2085 | – | 0.799 | 0.738 | 0.758 | 0.506 | 0.481 | 0.43 | 0.35 | 0.291 | 0.878 | 0.904 | 0.935 | 1.09 | 0.773 | 0.919 | 1.26 | 1.01 | 0.952 | 0.992
LCLC-103H | 0.488 | 0.463 | 0.476 | 0.516 | 0.472 | 0.471 | 0.469 | 0.424 | 0.495 | 1.11 | 1.22 | 0.984 | 1.08 | 0.869 | 0.99 | 1.13 | 1.05 | 1.13 | 1.15
PC-14 | 0.147 | 0.139 | 0.141 | 0.195 | 0.539 | 0.408 | 0.543 | 0.577 | 0.397 | 0.93 | 1.12 | 0.978 | 1.09 | 0.745 | 0.801 | 0.81 | 0.812 | 1.07 | 0.88
HCC-366 | 0.172 | 0.153 | 0.202 | 0.156 | 0.387 | 0.358 | 0.418 | 0.368 | 0.297 | 0.819 | 0.786 | 0.795 | 0.657 | 0.451 | 1.04 | 1.14 | 1.34 | 0.682 | 0.642
NCI-H2126 | 0.509 | 0.708 | 0.619 | 0.583 | 0.348 | 0.341 | 0.342 | 0.354 | 0.308 | 0.71 | 0.721 | 0.699 | 0.678 | 0.704 | 1.06 | 1.13 | 1.18 | 1.21 | 1.22
NCI-H2023 | 0.196 | 0.192 | 0.208 | 0.163 | 0.328 | 0.337 | 0.269 | 0.342 | 0.212 | 0.671 | 0.713 | 0.591 | 0.605 | 0.592 | 1.16 | 1.03 | 0.637 | 0.887 | 0.908
SK-LU-1 | 1.06 | 0.97 | 0.949 | 0.864 | 0.342 | 0.359 | 0.357 | 0.379 | 0.317 | 1.31 | 1.11 | 1.16 | 1.19 | 1.15 | – | 0.83 | 1.12 | 1.36 | 1.16
NCI-H2347 | 0.409 | 0.382 | 0.429 | 0.449 | 0.423 | 0.427 | 0.465 | 0.391 | 0.415 | 0.993 | 1.13 | 0.961 | 0.99 | 0.844 | 0.913 | 1.24 | 1.23 | 1.02 | 0.869
HCC-15 | 0.22 | 0.214 | 0.231 | 0.234 | 0.497 | 0.663 | 0.718 | 0.635 | 0.724 | 0.914 | 0.844 | 0.985 | 0.918 | 0.871 | 0.816 | 1.14 | 1.02 | 1.16 | 1.14
HCC-44 | 0.661 | 0.548 | 0.682 | 0.601 | 1.02 | 1.01 | 1 | 0.933 | 0.991 | 0.587 | 0.84 | 0.66 | 0.715 | 0.58 | 0.899 | 0.918 | 0.909 | 0.92 | 0.976
NCI-H1355 | 0.916 | 1.07 | 0.95 | 1.01 | 0.366 | 0.348 | 0.372 | 0.338 | 0.302 | 0.981 | 0.746 | 0.824 | 0.758 | 0.625 | 0.981 | 1.31 | 1.25 | 1.12 | 1.19
NCI-H2405 | 0.916 | 1.04 | 1.06 | 1.12 | 0.482 | 0.484 | 0.504 | 0.456 | 0.482 | 0.972 | 1.05 | 0.956 | 0.831 | 0.848 | 1.02 | 0.991 | 0.977 | 0.954 | 0.988
EKVX | 0.34 | 0.394 | 0.335 | 0.406 | 0.313 | 0.418 | 0.358 | 0.329 | 0.299 | 0.751 | 1.28 | 0.883 | 1.1 | 0.779 | 0.879 | 0.998 | 1.03 | 1.02 | 0.917
NCI-H1993 | 0.549 | 0.581 | 0.615 | 0.547 | 0.54 | 0.607 | 0.54 | 0.519 | 0.459 | 0.617 | 0.882 | 0.713 | 0.709 | 0.802 | 1.03 | 1.08 | 1.08 | 1.14 | 0.979
HOP-62 | 0.304 | 0.28 | 0.337 | 0.319 | 0.429 | 0.449 | 0.484 | 0.509 | 0.43 | 1.19 | 1.15 | 0.97 | 1.05 | 0.736 | 0.805 | 0.632 | 0.783 | 0.742 | 0.505
